Measurements published in patent US20240116985A1, “STAPLED PEPTIDES AND METHODS THEREOF” (priority 2020, published 2024).
pIC50: −log10 of the molar value. ≈ marks a conversion by molar mass, not a printed value. Where two headings read alike, the source gives them in different places.

What was measured:
CHI Log D procedure = assay type: physicochemical; conditions: for CHI Log D: pH 7.4; for chromatographic logD: pH 7.4, CHI Log D
Solubility in PBS = assay type: physicochemical
In short: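 The PBS solution was ultracentrifuged and the supernatant analyzed by HPLC. Its peak area was divided by that of a 50 μM peptide DMSO reference injection and multiplied by 50 uM to give solubility.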

[1] = target: T1, beta-catenin/TCF4 engagement (Homo sapiens, UniProt P35222); assay: Nano-BRET target engagement assay (B-cat-Halo & TCF4-Luc in HEK293 cells); assay type: cell-based; conditions: absolute IC50; read-out: NanoBRET Abs IC50
T1 construct: expressed in transfected cells; host or cells: HEK293
T1 sequence (P35222 1-781): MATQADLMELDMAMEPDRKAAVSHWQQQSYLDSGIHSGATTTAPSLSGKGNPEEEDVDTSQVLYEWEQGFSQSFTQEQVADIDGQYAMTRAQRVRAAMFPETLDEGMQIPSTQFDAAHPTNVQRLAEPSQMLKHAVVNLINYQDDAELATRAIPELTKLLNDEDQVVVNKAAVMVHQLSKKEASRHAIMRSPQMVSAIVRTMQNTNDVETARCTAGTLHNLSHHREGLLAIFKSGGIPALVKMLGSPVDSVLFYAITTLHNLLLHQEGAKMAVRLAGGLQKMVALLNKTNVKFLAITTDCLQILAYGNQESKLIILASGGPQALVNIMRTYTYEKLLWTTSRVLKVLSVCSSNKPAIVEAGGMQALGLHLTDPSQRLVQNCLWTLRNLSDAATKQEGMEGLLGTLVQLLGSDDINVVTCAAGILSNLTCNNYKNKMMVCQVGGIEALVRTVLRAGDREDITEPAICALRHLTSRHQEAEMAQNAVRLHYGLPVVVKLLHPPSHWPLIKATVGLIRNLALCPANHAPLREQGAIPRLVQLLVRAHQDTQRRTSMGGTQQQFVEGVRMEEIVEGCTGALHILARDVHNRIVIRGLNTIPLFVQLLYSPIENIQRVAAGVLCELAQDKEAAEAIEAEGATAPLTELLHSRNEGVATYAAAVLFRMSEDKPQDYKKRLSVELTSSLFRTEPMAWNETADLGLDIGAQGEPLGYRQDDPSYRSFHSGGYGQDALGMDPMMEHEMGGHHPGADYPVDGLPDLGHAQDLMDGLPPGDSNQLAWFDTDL

[2] = target: T2, full-length beta-Catenin (Uniprot ID P35222) (Homo sapiens, UniProt P35222); assay: Fluorescence polarization IC50 (beta-catenin / 5FAM-TCF4 10-53 competition); assay type: binding; conditions: fluorescence polarization; read-out: beta-Catenin FP IC50
T2 construct: 10 nM full-length beta-Catenin (Uniprot ID P35222)
T2 sequence (P35222 1-781): T1 sequence (P35222 1-781)

| Structure (SMILES) | CHI Log D (CHI Log D procedure) | Solubility (Solubility in PBS) [µM] | other results |
| --- | --- | --- | --- |
| CC(=O)N1CCC[C@]12CC=CCCCC1(CCCC=CCCCCCC[C@@](C)(C(=O)N[C@@H](Cc3ccccc3)C(=O)N[C@@H](Cc3c[nH]c4ccccc34)C(=O)N[C@@H](CCC(N)=O)C(N)=O)NC(=O)[C@H](C(C)C)NC(=O)C(Cc3cncn3C)NC(=O)[C@H](C)NC(=O)[C@H](C)NC(=O)[C@H](CC(=O)O)NC(=O)[C@H](CC(=O)O)NC1=O)NC(=O)[C@H](C)NC(=O)[C@H](CC(=O)O)NC2=O (single isomer, unassigned) [I-332, Ac-PL3-Asp-Ala-B5-Asp-Asp-Ala-Ala-3meH-Val-S8-Phe-Trp-Gln-NH2] | 2.038 |  | Solubility (Solubility in PBS; 15 min): 40 µM (≈ 71.4 µg/mL) |
| CC(=O)N[C@@H](Cc1ccccc1)C(=O)N[C@@H](CC(=O)O)C(=O)N[C@@H](C)C(=O)N[C@]1(C)CCCCCCC=CCOC(=O)N2CC[C@@](C(=O)N[C@@H](Cc3ccccc3)C(=O)N[C@@H](Cc3c[nH]c4ccccc34)C(=O)N[C@@H](CCC(N)=O)C(N)=O)(C2)NC(=O)[C@H](C(C)C)NC(=O)[C@H](Cc2ccccc2)NC(=O)[C@H](C)NC(=O)[C@H](C)NC(=O)[C@H](Cc2ccc3ccccc3c2)NC(=O)[C@H](CC(=O)O)NC1=O [I-116, Ac-Phe-Asp-Ala-R8-Asp-2NapA-Ala-Ala-Phe-Val-PyrS-Phe-Trp-Gln-NH2] | 2.134 | 11 (≈ 20.9 µg/mL) |  |
| CC(=O)N1CCC[C@]12CC=CCCCC1(CCCC=CCCCCCC[C@@](C)(C(=O)N[C@@H](CC(N)=O)C(=O)N[C@@H](Cc3c[nH]c4ccccc34)C(=O)N[C@@H](CCC(N)=O)C(N)=O)NC(=O)[C@H](C(C)C)NC(=O)[C@H](Cc3ccccc3)NC(=O)[C@H](C)NC(=O)[C@H](C)NC(=O)[C@H](CC(=O)O)NC(=O)[C@H](CC(=O)O)NC1=O)NC(=O)[C@H](C)NC(=O)[C@H](CC(=O)O)NC2=O (stereo partly drawn) [I-284, Ac-PL3-Asp-Ala-B5-Asp-Asp-Ala-Ala-Phe-Val-S8-Asn-Trp-Gln-NH2] |  |  | chromatographic logD (CHI Log D procedure): 1.52; Solubility (Solubility in PBS; Solubility (uM)): 40 µM (≈ 69.9 µg/mL) |
| CC(=O)N1CCC[C@]12CC=CCCCC1(CCCC=CCCCCCC[C@@](C)(C(=O)N[C@@H](Cc3ccc(C(N)=O)cc3)C(=O)N[C@@H](Cc3csc4ccccc34)C(=O)N[C@@H](CCC(N)=O)C(N)=O)NC(=O)[C@H](C(C)C)NC(=O)[C@H](Cc3ccccc3)NC(=O)[C@H](C)NC(=O)[C@H](C)NC(=O)[C@H](CC(=O)O)NC(=O)[C@H](CC(=O)O)NC1=O)NC(=O)[C@H](C)NC(=O)[C@H](CC(=O)O)NC2=O (stereo partly drawn) [I-337, Ac-PL3-Asp-Ala-B5-Asp-Asp-Ala-Ala-Phe-Val-S8-4CBMF-BztA-Gln-NH2] | 1.579 | 48 (≈ 88.4 µg/mL) |  |
| CC(=O)N1CCC[C@]12CC=CCCCC1(CCCC=CCCCCCC[C@@](C)(C(=O)N[C@@H](Cc3ccc(C(N)=O)cc3)C(=O)N[C@@H](Cc3csc4ccccc34)C(=O)N[C@@H](CCC(N)=O)C(N)=O)NC(=O)[C@H](C(C)C)NC(=O)[C@H](Cc3ccccc3)NC(=O)[C@H](C)NC(=O)[C@H](C)NC(=O)[C@H](CC(=O)O)NC(=O)[C@H](CC(=O)O)NC1=O)NC(=O)[C@H](C)NC(=O)[C@H](CC(=O)O)NC2=O (stereo partly drawn) [I-338, Ac-PL3-Asp-Ala-B5-Asp-Asp-Ala-Ala-Phe-Val-S8-4CBMF-BztA-Gln-NH2] | 1.586 | 47 (≈ 86.5 µg/mL) |  |
| CC(=O)N1CCC[C@]12CC=CCCCC1(CCCC=CCCCCCC[C@@](C)(C(=O)N[C@@H](Cc3ccc(C(=O)O)cc3)C(=O)N[C@@H](Cc3csc4ccccc34)C(=O)N[C@@H](CCC(N)=O)C(N)=O)NC(=O)[C@H](C(C)C)NC(=O)[C@H](Cc3ccccc3)NC(=O)[C@H](C)NC(=O)[C@H](C)NC(=O)[C@H](CC(=O)O)NC(=O)[C@H](CC(=O)O)NC1=O)NC(=O)[C@H](C)NC(=O)[C@H](CC(=O)O)NC2=O (stereo partly drawn) [I-339, Ac-PL3-Asp-Ala-B5-Asp-Asp-Ala-Ala-Phe-Val-S8-4COOHF-BztA-Gln-NH2] | 1.328 | 50 (≈ 92.1 µg/mL) |  |
| CC(=O)N1CCC[C@]12CC=CCCCC1(CCCC=CCCCCCC[C@@](C)(C(=O)N[C@@H](Cc3ccc(C(=O)O)cc3)C(=O)N[C@@H](Cc3csc4ccccc34)C(=O)N[C@@H](CCC(N)=O)C(N)=O)NC(=O)[C@H](C(C)C)NC(=O)[C@H](Cc3ccccc3)NC(=O)[C@H](C)NC(=O)[C@H](C)NC(=O)[C@H](CC(=O)O)NC(=O)[C@H](CC(=O)O)NC1=O)NC(=O)[C@H](C)NC(=O)[C@H](CC(=O)O)NC2=O (stereo partly drawn) [I-340, Ac-PL3-Asp-Ala-B5-Asp-Asp-Ala-Ala-Phe-Val-S8-4COOHF-BztA-Gln-NH2] | 1.341 | 49 (≈ 90.3 µg/mL) |  |
| CC(=O)N1CCC[C@]12CC=CCCCC1(CCCC=CCCCOC(=O)N3CC[C@@](C(=O)N[C@@H](Cc4ccsc4)C(=O)N[C@@H](Cc4csc5ccccc45)C(=O)N[C@H](CO)[C@@H](C)O)(C3)NC(=O)[C@H](Cc3ccc(C(F)(F)F)cc3)NC(=O)[C@H](Cc3ccccc3)NC(=O)[C@H](C)NC(=O)[C@H](C)NC(=O)[C@H](CC(=O)O)NC(=O)[C@H](CC(=O)O)NC1=O)NC(=O)[C@H](CC(C)(C)C)NC(=O)[C@H](CC(=O)O)NC2=O (stereo partly drawn) [I-1372, Ac-PL3-Asp-Npg-B5-Asp-Asp-Ala-Ala-Phe-4F3MeF-PyrS2-3Thi-BztA-Thro1] |  | 10 (≈ 19.8 µg/mL) | pIC50 [1]: 4.99; pIC50 [2]: 7.54 |

Now from value to molecule, other results behind:

| CHI Log D (CHI Log D procedure) | Solubility (Solubility in PBS) [µM] | Structure (SMILES) | other results |
| --- | --- | --- | --- |
|  | 10 (≈ 18.3 µg/mL) | CC(=O)N1CCC[C@]12CC=CCCCC1(CCCC=CCCCCCC[C@@](C)(C(=O)N[C@@H](Cc3ccccc3)C(=O)N[C@@H](Cc3c[nH]c4ccccc34)C(=O)N[C@@H](CCC(N)=O)C(N)=O)NC(=O)[C@H](C(C)C)NC(=O)[C@H](Cc3ccccc3)NC(=O)[C@H](C)NC(=O)[C@H](C)NC(=O)[C@H](Cc3cccc(F)c3)NC(=O)[C@H](CC(=O)O)NC1=O)NC(=O)[C@H](C)NC(=O)[C@H](CC(=O)O)NC2=O (stereo partly drawn) [I-257, Ac-PL3-Asp-Ala-B5-Asp-3FF-Ala-Ala-Phe-Val-S8-Phe-Trp-Gln-NH2] | chromatographic logD (CHI Log D procedure): 2.91 |
| 2.191 | 44 (≈ 80.6 µg/mL) | CC(=O)N1CCC[C@]12CC=CCCCC1(CCCC=CCCCCCC[C@@](C)(C(=O)N[C@@H](Cc3cccc4ccccc34)C(=O)N[C@@H](Cc3c[nH]c4ccccc34)C(=O)N[C@@H](CCC(N)=O)C(N)=O)NC(=O)[C@H](C(C)C)NC(=O)[C@H](Cc3ccccc3)NC(=O)[C@H](C)NC(=O)[C@H](C)NC(=O)[C@H](CC(=O)O)NC(=O)[C@H](CC(=O)O)NC1=O)NC(=O)[C@H](C)NC(=O)[C@H](CC(=O)O)NC2=O (stereo partly drawn) [I-275, Ac-PL3-Asp-Ala-B5-Asp-Asp-Ala-Ala-Phe-Val-S8-1NapA-Trp-Gln-NH2] |  |
| 2.01 | 41 (≈ 73.2 µg/mL) | CC(=O)N1CCC[C@]12CC=CCCCC1(CCCC=CCCCCCC[C@@](C)(C(=O)N[C@@H](Cc3ccccc3)C(=O)N[C@@H](Cc3c[nH]c4ccccc34)C(=O)N[C@@H](CCC(N)=O)C(N)=O)NC(=O)[C@H](C(C)C)NC(=O)[C@H](Cc3cn(C)cn3)NC(=O)[C@H](C)NC(=O)[C@H](C)NC(=O)[C@H](CC(=O)O)NC(=O)[C@H](CC(=O)O)NC1=O)NC(=O)[C@H](C)NC(=O)[C@H](CC(=O)O)NC2=O (stereo partly drawn) [I-329, Ac-PL3-Asp-Ala-B5-Asp-Asp-Ala-Ala-1meH-Val-S8-Phe-Trp-Gln-NH2] |  |
| 2.047 | 21 (≈ 37.5 µg/mL) | CC(=O)N1CCC[C@]12CC=CCCCC1(CCCC=CCCCCCC[C@@](C)(C(=O)N[C@@H](Cc3ccccc3)C(=O)N[C@@H](Cc3c[nH]c4ccccc34)C(=O)N[C@@H](CCC(N)=O)C(N)=O)NC(=O)[C@H](C(C)C)NC(=O)[C@H](Cc3cn(C)cn3)NC(=O)[C@H](C)NC(=O)[C@H](C)NC(=O)[C@H](CC(=O)O)NC(=O)[C@H](CC(=O)O)NC1=O)NC(=O)[C@H](C)NC(=O)[C@H](CC(=O)O)NC2=O (stereo partly drawn) [I-330, Ac-PL3-Asp-Ala-B5-Asp-Asp-Ala-Ala-1meH-Val-S8-Phe-Trp-Gln-NH2] |  |
| 2.397 | 46 (≈ 79.9 µg/mL) | CC(=O)N1CCC[C@]12CC=CCCCC1(CCCC=CCCCCCC[C@@](C)(C(=O)N[C@@H](Cc3ccccc3)C(=O)N[C@@H](Cc3c[nH]c4ccccc34)C(=O)N[C@@H](CCC(N)=O)C(N)=O)NC(=O)[C@H](C(C)C)NC(=O)[C@H](Cc3ccccc3)NC(=O)[C@H](C)NC(=O)[C@H](C)NC(=O)[C@H](CC(=O)O)NC(=O)[C@H](CC(=O)O)NC1=O)NC(=O)[C@H](C)NC(=O)[C@H](C)NC2=O (stereo partly drawn) [I-348, Ac-PL3-Ala-Ala-B5-Asp-Asp-Ala-Ala-Phe-Val-S8-Phe-Trp-Gln-NH2] |  |
| 2.415 | 49 (≈ 85.1 µg/mL) | CC(=O)N1CCC[C@]12CC=CCCCC1(CCCC=CCCCCCC[C@@](C)(C(=O)N[C@@H](Cc3ccccc3)C(=O)N[C@@H](Cc3c[nH]c4ccccc34)C(=O)N[C@@H](CCC(N)=O)C(N)=O)NC(=O)[C@H](C(C)C)NC(=O)[C@H](Cc3ccccc3)NC(=O)[C@H](C)NC(=O)[C@H](C)NC(=O)[C@H](CC(=O)O)NC(=O)[C@H](CC(=O)O)NC1=O)NC(=O)[C@H](C)NC(=O)[C@H](C)NC2=O (stereo partly drawn) [I-349, Ac-PL3-Ala-Ala-B5-Asp-Asp-Ala-Ala-Phe-Val-S8-Phe-Trp-Gln-NH2] |  |
